Read-outs that look alike come from different tables or passages of the source.
Assay: APP processing: AlphaLisa assay of secreted Aβ40 and Aβ42 from SP4CT cells
Format: cell-based
Settings: Homo sapiens, SH-SY5Y cells expressing amyloid β protein (SP4CT cells)
Protocol: APP Processing (Assay Quantitates Secreted Aβ Analytes from Cell Lines):
The effect of compounds on the abundance of Aβ40 and Aβ42 peptides generated from SH-SY5Y cells expressing amyloid β protein (SP4CT cells) are determined by an AlphaLisa™ assay. Analogous to an ELISA assay, generation of […] AlphaLisa™ assay requires “donor” and “acceptor” beads to be brought in close proximity by specific antibody recognition of either Aβ40 or Aβ42 peptides. The assay is accomplished by removing media from compound-treated SP4CT cells to two different microplates, followed by the addition of donor beads conjugated with streptavidin binding a biotinylated anti-amyloid β monocolonal antibody (clone 4G8). Acceptor beads directly conjugated with anti-Aβ40 monoclonal antibody (G210) are added to one microplate and anti-Aβ42 monoclonal antibody (12F4) acceptor beads were added to the other. Abundance of Aβ40 and Aβ42 is directly proportional to the luminescent signal generated following excitation of donor beads by laser light.

[1] = read-out: IC50, inhibition of production of Aβ40 peptide
[2] = read-out: IC50, inhibition of production of Aβ42 peptide

IC50 [1]	IC50 [2]	SMILES
< 0.2 µM	< 0.2 µM	CCn1nc(-c2cncc(C3(NS(=O)(=O)CC(F)(F)F)CC3)c2)cc1Oc1ccc(C(F)(F)F)cc1 [Example 52, N-[1-(5-{1-ethyl-5-[4-(trifluoromethyl)phenoxy]-1H-pyrazol-3-yl}pyridin-3-yl)cyclopropyl]-2,2,2-trifluoroethanesulfonamide]
< 0.2 µM	< 0.2 µM	CCn1nc(Oc2ccc(F)cc2)cc1-c1cccc(C(C)(C)NS(=O)(=O)NC2CCC2)c1 [Example 54, N-cyclobutyl-N′-(1-{3-[1-ethyl-3-(4-fluorophenoxy)-1H-pyrazol-5-yl]phenyl}-1-methylethyl)sulfamide]
< 0.2 µM	< 0.2 µM	CCn1nc(Oc2ccc(F)cc2)cc1-c1cccc(C(C)(C)NS(=O)(=O)NCC(F)(F)F)c1 [Example 55, N-(1-{3-[1-ethyl-3-(4-fluorophenoxy)-1H-pyrazol-5-yl]phenyl}-1-methylethyl)-N'-(2,2,2-trifluoroethyl)sulfamide]
< 0.2 µM	< 0.2 µM	CCn1nc(-c2cccc(C(C)(C)NS(=O)(=O)CC(F)(F)F)c2)cc1Oc1ccc(F)cc1 [Example 56, N-(1-{3-[1-ethyl-5-(4-fluorophenoxy)-1H-pyrazol-3-yl]phenyl}-1-methylethyl)-2,2,2-trifluoroethanesulfonamide]
< 0.2 µM	< 0.2 µM	CCn1nc(-c2cccc(C(C)(C)NS(=O)(=O)CC(F)(F)F)c2)cc1Oc1ccccc1 [Example 57, N-{1-[3-(1-ethyl-5-phenoxy-1H-pyrazol-3-yl)phenyl]-1-methylethyl}-2,2,2-trifluoroethanesulfonamide]
< 0.2 µM	< 0.2 µM	CCn1nc(-c2cccc(C(C)(C)NS(=O)(=O)CC(F)(F)F)c2)cc1Oc1ccc(C(C)C)cc1 [Example 58, N-(1-{3-[1-ethyl-5-(4-isopropylphenoxy)-1H-pyrazol-3-yl]phenyl}-1-methylethyl)-2,2,2-trifluoroethanesulfonamide]
< 0.2 µM	< 0.2 µM	CCn1nc(-c2cccc(C(C)(C)NS(=O)(=O)CC(F)(F)F)c2)cc1Oc1ccc(C)cc1 [Example 59, N-(1-{3-[1-ethyl-5-(4-methylphenoxy)-1H-pyrazol-3-yl]phenyl}-1-methylethyl)-2,2,2-trifluoroethanesulfonamide]
< 0.2 µM	< 0.2 µM	CCn1nc(-c2cccc(C(C)(C)NS(=O)(=O)CC(F)(F)F)c2)cc1Oc1ccc(C(C)(C)C)cc1 [Example 60, N-(1-{3-[5-(4-tert-butylphenoxy)-1-ethyl-1H-pyrazol-3-yl]phenyl}-1-methylethyl)-2,2,2-trifluoroethanesulfonamide]
< 0.2 µM	< 0.2 µM	CCn1nc(-c2cccc(C(C)(C)NS(=O)(=O)CC(F)(F)F)c2)cc1Oc1ccc(C=O)cc1 [Example 61, N-(1-{3-[1-ethyl-5-(4-formylphenoxy)-1H-pyrazol-3-yl]phenyl}-1-methylethyl)-2,2,2-trifluoroethanesulfonamide]
< 0.2 µM	< 0.2 µM	CCn1nc(-c2cccc(C(C)(C)NS(=O)(=O)CC(F)(F)F)c2)cc1Oc1ccc(CO)cc1 [Example 62, N-[1-(3-{1-ethyl-5-[4-(hydroxymethyl)phenoxy]-1H-pyrazol-3-yl}phenyl)-1-methylethyl]-2,2,2-trifluoroethanesulfonamide]
< 0.2 µM	< 0.2 µM	CCn1nc(-c2cccc(C(C)(C)NS(=O)(=O)CC(F)(F)F)c2)cc1Oc1ccc(CF)cc1 [Example 63, N-[1-(3-{1-ethyl-5-[4-(fluoromethyl)phenoxy]-1H-pyrazol-3-yl}phenyl)-1-methylethyl]-2,2,2-trifluoroethanesulfonamide]
< 0.2 µM	< 0.2 µM	CCn1nc(-c2cccc(C(C)(C)NS(=O)(=O)CC(F)(F)F)c2)cc1Oc1ccc(C(F)F)cc1 [Example 64, N-[1-(3-{5-[4-(difluoromethyl)phenoxy]-1-ethyl-1H-pyrazol-3-yl}phenyl)-1-methylethyl]-2,2,2-trifluoroethanesulfonamide]
< 0.2 µM	< 0.2 µM	CCn1nc(-c2cccc(C(C)(C)NS(=O)(=O)CC(F)(F)F)c2)cc1Oc1ccc(C(C)O)cc1 (stereo not drawn) [Example 65, N-[1-(3-{1-ethyl-5-[4-(1-hydroxyethyl)phenoxy]-1H-pyrazol-3-yl}phenyl)-1-methylethyl]-2,2,2-trifluoroethanesulfonamide]
< 0.2 µM	< 0.2 µM	CCn1nc(-c2cccc(C(C)(C)NS(=O)(=O)CC(F)(F)F)c2)cc1Oc1ccc(C(O)C(C)C)cc1 (stereo not drawn) [Example 66, N-[1-(3-{1-ethyl-5-[4-(1-hydroxy-2-methylpropyl)phenoxy]-1H-pyrazol-3-yl}phenyl)-1-methylethyl]-2,2,2-trifluoroethanesulfonamide]
< 0.2 µM	< 0.2 µM	CCC(O)c1ccc(Oc2cc(-c3cccc(C(C)(C)NS(=O)(=O)CC(F)(F)F)c3)nn2CC)cc1 (stereo not drawn) [Example 67, N-[1-(3-{1-ethyl-5-[4-(1-hydroxypropyl)phenoxy]-1H-pyrazol-3-yl}phenyl)-1-methylethyl]-2,2,2-trifluoroethanesulfonamide]
< 0.2 µM	< 0.2 µM	CCn1nc(-c2cccc(C(C)(C)NS(=O)(=O)CC(F)(F)F)c2)cc1Oc1ccc(C(C)F)cc1 (stereo not drawn) [Example 68, N-[1-(3-{1-ethyl-5-[4-(1-fluoroethyl)phenoxy]-1H-pyrazol-3-yl}phenyl)-1-methylethyl]-2,2,2-trifluoroethanesulfonamide]
< 0.2 µM	< 0.2 µM	CCn1nc(-c2cccc(C(C)(C)NS(=O)(=O)CC(F)(F)F)c2)cc1Oc1ccc(C(C)=O)cc1 [Example 69, N-(1-{3-[5-(4-acetylphenoxy)-1-ethyl-1H-pyrazol-3-yl]phenyl}-1-methylethyl)-2,2,2-trifluoroethanesulfonamide]
< 0.2 µM	< 0.2 µM	CCn1nc(-c2cccc(C(C)(C)NS(=O)(=O)CC(F)(F)F)c2)cc1Oc1ccc(C(C)(C)O)cc1 [Example 70, N-[1-(3-{1-ethyl-5-[4-(1-hydroxy-1-methylethyl)phenoxy]-1H-pyrazol-3-yl}phenyl)-1-methylethyl]-2,2,2-trifluoroethanesulfonamide]
< 0.2 µM	< 0.2 µM	CCn1nc(-c2cccc(C(C)(C)NS(=O)(=O)CC(F)(F)F)c2)cc1Oc1ccc(C(O)C(F)(F)F)cc1 (stereo not drawn) [Example 71, N-[1-(3-{1-ethyl-5-[4-(2,2,2-trifluoro-1-hydroxyethyl)phenoxy]-1H-pyrazol-3-yl}phenyl)-1-methylethyl]-2,2,2-trifluoroethanesulfonamide]
< 0.2 µM	< 0.2 µM	CCn1nc(-c2cccc(C(C)(C)NS(=O)(=O)CC(F)(F)F)c2)cc1Oc1ccc(C(F)C(F)(F)F)cc1 (stereo not drawn) [Example 72, N-[1-(3-{1-ethyl-5-[4-(1,2,2,2-tetrafluoroethyl)phenoxy]-1H-pyrazol-3-yl}phenyl)-1-methylethyl]-2,2,2-trifluoroethanesulfonamide]
< 0.2 µM	< 0.2 µM	CCn1nc(-c2cccc(C(C)(C)NS(=O)(=O)CC(F)(F)F)c2)cc1Oc1ccc(C(=O)C(F)(F)F)cc1 [Example 73, N-[1-(3-{1-ethyl-5-[4-(trifluoroacetyl)phenoxy]-1H-pyrazol-3-yl}phenyl)-1-methylethyl]-2,2,2-trifluoroethanesulfonamide]
< 0.2 µM	< 0.2 µM	CCn1nc(-c2cccc(C(C)(C)NS(=O)(=O)CC(F)(F)F)c2)cc1Oc1ccc(C(=O)NCC2CCCO2)cc1 (stereo not drawn) [Example 74, 4-({1-ethyl-3-[3-(1-methyl-1-{[(2,2,2-trifluoroethyl)sulfonyl]amino}ethyl)phenyl]-1H-pyrazol-5-yl}oxy)-N-(tetrahydrofuran-2-ylmethyl)benzamide]
< 0.2 µM	< 0.2 µM	CCn1nc(-c2cccc(C(C)(C)NS(=O)(=O)CC(F)(F)F)c2)cc1Oc1ccc(-c2nnc(C)o2)cc1 [Example 75, N-[1-(3-{1-ethyl-5-[4-(5-methyl-1,3,4-oxadiazol-2-yl)phenoxy]-1H-pyrazol-3-yl}phenyl)-1-methylethyl]-2,2,2-trifluoroethanesulfonamide]
< 0.2 µM	< 0.2 µM	CCn1nc(-c2cccc(C(C)(C)NS(=O)(=O)CC(F)(F)F)c2)cc1Oc1ccc(-c2cnco2)cc1 [Example 76, N-[1-(3-{1-ethyl-5-[4-(1,3-oxazol-5-yl)phenoxy]-1H-pyrazol-3-yl}phenyl)-1-methylethyl]-2,2,2-trifluoroethanesulfonamide]
< 0.2 µM	< 0.2 µM	CCn1nc(-c2cccc(C(C)(C)NS(=O)(=O)CC(F)(F)F)c2)cc1Oc1ccc(CNCc2ccccn2)cc1 [Example 77, N-(1-{3-[1-ethyl-5-(4-{[(pyridin-2-ylmethyl)amino]methyl}phenoxy)-1H-pyrazol-3-yl]phenyl}-1-methylethyl)-2,2,2-trifluoroethanesulfonamide]
< 0.2 µM	< 0.2 µM	CCn1nc(-c2cccc(C(C)(C)NS(=O)(=O)CC(F)(F)F)c2)cc1Oc1ccc(CN2CCOCC2)cc1 [Example 78, N-[1-(3-{1-ethyl-5-[4-(morpholin-4-ylmethyl)phenoxy]-1H-pyrazol-3-yl}phenyl)-1-methylethyl]-2,2,2-trifluoroethanesulfonamide]
< 0.2 µM	< 0.2 µM	CCn1nc(-c2cccc(C(C)(C)NS(=O)(=O)CC(F)(F)F)c2)cc1Oc1ccc(CNCc2ccccc2)cc1 [Example 79, N-{1-[3-(5-{4-[(benzylamino)methyl]phenoxy}-1-ethyl-1H-pyrazol-3-yl)phenyl]-1-methylethyl}-2,2,2-trifluoroethanesulfonamide]

Reference: patent publication US8871796B2, “Diaryl ether derivatives as notch sparing gamma secretase inhibitors” (Merck Sharp & Dohme Corp., priority 2009, dated 2014)
